The target in the assay is Trypsin. The assay can be described thus: Inhibitory concentration against trypsin was determined.

pIC50: −log10 of the molar value.

In turn, `NS(=O)(=O)c1ccccc1-c1ccc(C(=O)Nc2ccccc2C(=O)Nc2ccc(Br)cn2)cc1` [2'-Sulfamoyl-biphenyl-4-carboxylic acid [2-(5-bromo-pyridin-2-ylcarbamoyl)-phenyl]-amide] had a pIC50 of less than 5.00.

Usually pIC50 stands for −log10 of the IC50, conventionally taken in molar units. Low readings indicate a high IC50, high ones a low IC50.

The values are drawn from BindingDB's records for doi:10.1016/j.bmcl.2003.11.079 (Millennium Pharmaceuticals, 2004).
